Test results reported in ChEMBL document CHEMBL3885861, “Open TG-GATES”.

Organism: Rattus norvegicus
Assay: Open TG-GATES - Regimen: Daily Repeat
Assay type: toxicity, organism-based, Sprague-Dawley
Parameters: regimen Daily Repeat, gender Male, age 6 weeks
Conditions: in vivo, po, 1000 mg/kg, route gavage, dose level High; for APTT / Bas / Eos / Fbg / Hb / Ht / Lym / MCH / MCHC / MCV / Mono / Neu / PT / Plat / RBC / Ret / WBC: tissue Blood
[1] = 72 h, tissue Kidney, time 3 day
[2] = 72 h, tissue Plasma, time 3 day

For `Cc1nnc2n1-c1ccc(Cl)cc1C(c1ccccc1Cl)=NC2` [TRIAZOLAM], the TERMINAL_BW (72 h, time 3 day) was 221.7 g, the APTT (72 h, time 3 day) was 18.3 s and the Bas (72 h, time 3 day) was 0.2%. The Eos (72 h, time 3 day) was 1%, the Fbg (72 h, time 3 day) was 278.6 mg/dL and the Hb (72 h, time 3 day) was 13.8 g/dL. The Ht (72 h, time 3 day) was 41.1%, the Lym (72 h, time 3 day) was 78.2% and the MCH (72 h, time 3 day) was 21.3 pg. The MCHC (72 h, time 3 day) was 33.6%, the MCV (72 h, time 3 day) was 63.4 fL and the Mono (72 h, time 3 day) was 3.6%. It also gave a Neu (72 h, time 3 day) of 16%, a PT (72 h, time 3 day) of 13 s and a Plat (72 h, time 3 day) of 124.4 x10_4/uL. It also gave an RBC (72 h, time 3 day) of 650.2 x10_4/ul, a Ret (72 h, time 3 day) of 6.4% and a WBC (72 h, time 3 day) of 105.8 x10_2/uL. The KIDNEY_L [1] was 1 g, the KIDNEY_R [1] was 1 g and the KIDNEY_TOTAL [1] was 1.9 g. The LIVER (72 h, tissue Liver, time 3 day) was 10.9 g, the A/G [2] was 0.9 and the ALP [2] was 1527.4 IU/L. It also gave an ALT [2] of 56 IU/L, an AST [2] of 67.4 IU/L and a BUN [2] of 14.4 mg/dL. It also gave a CRE [2] of 0.2 mg/dL, a Ca [2] of 11.5 mg/dL and a Cl [2] of 102.8 meq/L. For the same compound, the DBIL [2] was 0.016 mg/dL, the GLC [2] was 167 mg/dL and the IP [2] was 9.1 mg/dL. For the same compound, the K [2] was 4.2 meq/L, the LDH [2] was 98.4 IU/L and the Na [2] was 141.6 meq/L. For the same compound, the PL [2] was 157 mg/dL, the RALB [2] was 2.6 g/dL and the TBIL [2] was 0.048 mg/dL. It also gave a TC [2] of 81.2 mg/dL, a TG [2] of 84.2 mg/dL and a TP [2] of 5.6 g/dL. For the same compound, the gamma-GTP [2] was 1 IU/L, the TERMINAL_BW ([…], time 7 day) was 254.6 g and the TERMINAL_BW ([…], time 14 day) was 312.6 g. The TERMINAL_BW ([…], time 28 day) was 383.1 g, the APTT ([…], time 7 day) was 17.8 s and the Bas ([…], time 7 day) was 0%. For the same compound, the Eos ([…], time 7 day) was 1%, the Fbg ([…], time 7 day) was 282.6 mg/dL and the Hb ([…], time 7 day) was 13.7 g/dL. It also gave a Ht ([…], time 7 day) of 40.7%, a Lym ([…], time 7 day) of 74% and an MCH ([…], time 7 day) of 20.9 pg. The MCHC ([…], time 7 day) was 33.6%, the MCV ([…], time 7 day) was 62.1 fL and the Mono ([…], time 7 day) was 2.6%. For the same compound, the Neu ([…], time 7 day) was 21.6%, the PT ([…], time 7 day) was 12.8 s and the Plat ([…], time 7 day) was 129.1 x10_4/uL. For the same compound, the RBC ([…], time 7 day) was 656.2 x10_4/ul, the Ret ([…], time 7 day) was 5.5% and the WBC ([…], time 7 day) was 113.3 x10_2/uL. It also gave an APTT ([…], time 14 day) of 18.3 s, a Bas ([…], time 14 day) of 0.4% and an Eos ([…], time 14 day) of 1%. The Fbg ([…], time 14 day) was 249.6 mg/dL, the Hb ([…], time 14 day) was 14.2 g/dL and the Ht ([…], time 14 day) was 43.5%. For the same compound, the Lym ([…], time 14 day) was 78.6%, the MCH ([…], time 14 day) was 20 pg and the MCHC ([…], time 14 day) was 32.6%. The MCV ([…], time 14 day) was 61.2 fL, the Mono ([…], time 14 day) was 2.6% and the Neu ([…], time 14 day) was 16.8%. For the same compound, the PT ([…], time 14 day) was 13.3 s, the Plat ([…], time 14 day) was 123.4 x10_4/uL and the RBC ([…], time 14 day) was 711.4 x10_4/ul. For the same compound, the Ret ([…], time 14 day) was 5.3%, the WBC ([…], time 14 day) was 135.4 x10_2/uL and the APTT ([…], time 28 day) was 18.3 s. For the same compound, the Bas ([…], time 28 day) was 0.2%, the Eos ([…], time 28 day) was 1.4% and the Fbg ([…], time 28 day) was 273 mg/dL. The Hb ([…], time 28 day) was 15.3 g/dL and the Ht ([…], time 28 day) was 45.2%.
